Measured values: article PMC11385693, “Synthesis of ferrocenyl benzimidazole derivatives as novel anti-Toxoplasma gondii agents” (New Journal of Chemistry, 2024)

Legend:
[1] = Aqueous stability studies (UV-vis monitoring, ESI-MS follow-up); format: physicochemical; details: PBS pH 7.4, HEPES pH 7.0 and acetate buffer pH 4.6; 37 °C, 18 hours, 50 μM
Experimental: The stability of complexes 14–17 in an aqueous environment was investigated. The stability experiments were performed in PBS (pH 7.4) and HEPES (pH 7.0) buffers, as well as in acidic acetate buffer (pH 4.6), by monitoring the UV-vis spectra of the compounds at 37 °C over an 18-hour period.
To further investigate the stability of 14, the PBS, HEPES and acetate buffer solutions were evaporated to dryness, and then analysed using electrospray ionisation mass spectrometry in the positive ionisation mode.
PBS and HEPES buffers were prepared as described above. An acetate buffer with a concentration of […] and a pH of 4.60 was prepared by dissolving 5.40 g (65.83 mmol) of sodium acetate in 50 mL of dH2O. The resulting solution was then titrated to a pH of 4.60 with glacial acetic acid and made up to 100 mL with dH2O.
1 mM stock solutions of the synthesised target compounds in MeOH were prepared. 1.90 mL of buffer (PBS, HEPES or acetate buffer) was pipetted into cuvettes followed by the addition 100 μL of test compound stock solutions, diluting them to a final concentration of 50 μM. The cuvettes were then stoppered, inverted to mix the solution, and placed in an Agilent Cary 3500 UV-vis spectrophotometer as fast as possible. Blank solutions in matched cuvettes were also prepared by adding 100 μL of MeOH to 1.9 mL of buffer. The solutions in all the cuvettes were stirred at 400 rpm ensure proper mixing. UV spectra were then recoded every 5 minutes for 18 hours with a spectral width of 200–1100 nm to monitor the stability of the test compounds.

[2] = Cyclic voltammetry; format: physicochemical
Text: Ferrocene is known to undergo reversible oxidation and reduction, cycling between its 3^+ ferrocenium and the 2^+ ferrocene (Fc) states.[49,50] This redox behaviour leads to the generation of reactive oxygen species (ROS) through Fenton like reactions, which can in turn lead to parasite death.[51–53] Cyclic voltammetry was used to determine if the synthesised ferrocenyl derivatives had the potential to have an impact on the redox status of the parasite cells. Two different scan rates (25 and 90 mV s^−1) were used to ensure the reliability of the results, compared to ferrocene alone.

O=C(NCCn1cnc2cccnc21)[c-]1cccc1.[Fe+2].c1cc[cH-]c1 [Compound 17]
Change of UV-vis spectrum over time (aqueous stability) [1]: remained unchanged | E 1/2 ([2]; Run1, scan rate 25 mV s^−1): 620 mV | ΔEp ([2]; Run1, scan rate 25 mV s^−1): 79 mV | E 1/2 ([2]; Run2, scan rate 90 mV s^−1): 618 mV | ΔEp ([2]; Run2, scan rate 90 mV s^−1): 68 mV
